Patent publication US10028992B2, “Methods of treating muscular dystrophy” (BOARD OF REGENTS OF THE NEVADA SYSTEM OF HIGHER EDUCATION …, priority 2012, dated 2018)

Tested on: α7 integrin promoter
Assay: muscle cell-based assay: α7βgal+/− myoblasts/myotubes, LacZ reporter, β-galactosidase cleavage of FDG
Set-up: species or system mouse; Results in α7+/− β-galactosidase assay: scale not given here
Conditions: for Results in a α7+/− β-galactosidase assay, Myotubes, 0.5 uM: compound at 0.5 uM; for Results in a α7+/− β-galactosidase assay, Myotubes, 1 uM: compound at 1 uM; for Results in a α7+/− β-galactosidase assay, Myotubes, 5 uM: compound at 5 uM; for Results in a α7+/− β-galactosidase assay, Myotubes, 10 uM: compound at 10 uM; for Results in a α7+/− β-galactosidase assay, Myotubes, 20 uM: compound at 20 uM; for Results in a α7+/− β-galactosidase assay, Myotubes, 40 uM: compound at 40 uM; for AC50 / Emax / EC50: Mus musculus; for AC50: log of AC50, given with negative sign, unit of AC50 not given, read-out: Fit Log AC50 (converted); for Fit Curve Class: key not given; for Emax: read-out: Max Response [%]; for EC50: given as log AC50 (negative values), read-out: Fit LogAC50 (converted); for Results in α7+/− β-galactosidase assay: Myoblasts
Method in brief: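 Primary α7βgal+/− mouse myoblasts (LacZ knocked into α7 integrin exon 1, promoter retained), differentiated; promoter activity read as β-galactosidase conversion of non-fluorescent FDG to fluorescein. Hits followed by dose-response, western analysis and myostatin counterscreen.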

[1] = Table 12, fitted activity at zero concentration
[2] = Table 12 Compound data, concentration-response curve fit
[3] = curve fit, activity at zero concentration

| Compound | Results in a α7+/− β-galactosidase assay, Myotubes, 0.5 uM | Results in a α7+/− β-galactosidase assay, Myotubes, 1 uM | Results in a α7+/− β-galactosidase assay, Myotubes, 5 uM | Results in a α7+/− β-galactosidase assay, Myotubes, 10 uM | Results in a α7+/− β-galactosidase assay, Myotubes, 20 uM | Results in a α7+/− β-galactosidase assay, Myotubes, 40 uM | also measured |
| --- | --- | --- | --- | --- | --- | --- | --- |
| CCN(CC)CCNC(=O)c1c(C)[nH]c(CC2C(=O)Nc3ccc(F)cc32)c1C (stereo not shown) [drawing 507] | −0.07384 | −0.08032 | −0.9266 | −1.896 | −0.9097 | −0.9224 | – |
| CC1CC(C)(C)N=C(S)N1CC(=O)N(C)Cc1ccccc1 (stereo not shown) [drawing 385] | 0.02464 | −0.02121 | −0.03109 | 0.2144 | −0.02703 | 0.0594 | – |
| COc1ccc2oc(C[S+]([O-])c3ccccc3)c(C(=O)O)c2c1 (stereo not shown) [Compound 109] | – | – | – | – | – | – | AC50 (Table 12): 12.6 µM; Fit HillSlope (Table 12, curve fit): 4.9549; Fit Zero Activity [%] [1]: 7.5839%; Fit Curve Class (Table 12): 2.1; Score [2]: 43 |
| COC(=O)c1cc(S(=O)(=O)NCC2CCN(Cc3ccc(Cl)cc3)CC2)cn1C [drawing 464] | −0.00414 | −0.05118 | −0.09401 | −0.08097 | −0.09607 | −0.07382 | – |
| Cc1cc(OCC(=O)NC(C)C)ccc1Cl [Compound 11] | – | – | – | – | – | – | Activity at 0.307 μM [%] **: 0%; AC50 (Table 12): 3.98 µM; Emax: 102%; Fit HillSlope (Table 12, curve fit): 2.5334; Fit Zero Activity [%] [1]: −0.509%; Fit Curve Class (Table 12): 1.1; Score [2]: 85 |
| N#CC1=C2SCN(c3ccccc3)CN2C(=O)CC1c1cccs1 (stereo not shown) [drawing 360] | 0.09082 | 0.1158 | −0.0988 | −0.03259 | −0.2578 | −0.3783 | – |
| C/C(=N\NC(=O)c1cc(C)oc1C)c1ccc2ccccc2c1 [Compound 149] | – | – | – | – | – | – | EC50: 8.91 µM; Score (Table 12 compound data): 42; Fit Curve Class (curve class number): 2.2; Fit HillSlope (curve fit): 1.111; Fit Zero Activity [%] [3]: −1.9678% |
| Cc1ccc(NP(=O)(Nc2ccc(C)cc2)Nc2ccc(C)cc2)cc1 [Compound 10] | – | – | – | – | – | – | Activity at 0.307 μM [%] **: 0%; AC50 (Table 12): 3.16 µM; Emax: 102%; Fit HillSlope (Table 12, curve fit): 2.8473; Fit Zero Activity [%] [1]: 0%; Fit Curve Class (Table 12): 1.1; Score [2]: 85 |
| CCN(C(=O)c1ccc(S(=O)(=O)N(C)C)cc1)C(C)C(=O)Nc1ccc(C)cc1 (stereo not shown) [drawing 556] | – | – | – | – | – | – | Results in α7+/− β-galactosidase assay (0.5 uM): −0.05004; Results in α7+/− β-galactosidase assay (1 uM): −0.1349; Results in α7+/− β-galactosidase assay (5 uM): −0.02565; Results in α7+/− β-galactosidase assay (10 uM): 0.2444; Results in α7+/− β-galactosidase assay (20 uM): −0.07832; Results in α7+/− β-galactosidase assay (40 uM): −0.2867 |
| CCOC(=O)c1cc(-c2cccs2)nc2c1c(C)nn2-c1ccccn1 [drawing 462] | −0.07388 | −0.1286 | −0.1329 | −0.1516 | −0.2792 | −0.2792 | – |
| CC(C(=O)Nc1ccc(C#N)cc1)N(C)CC(=O)Nc1cccc(F)c1 (stereo not shown) [Compound 186] | – | – | – | – | – | – | EC50: 3.98 µM; Score (Table 12 compound data): 42; Fit Curve Class (curve class number): 2.1; Fit HillSlope (curve fit): 0.9; Fit Zero Activity [%] [3]: −45.5302% |
| Cn1ccc(C(=O)Nc2cccnc2Cl)n1 [drawing 502] | 0.04794 | −0.05775 | 0.0198 | 0.06627 | −0.1124 | −0.1256 | – |
| N#Cc1ccc(Sc2nc3ccccc3[nH]2)cc1C#N [Compound 218] | – | – | – | – | – | – | EC50: 10 µM; Score (Table 12 compound data): 42; Fit Curve Class (curve class number): 2.2; Fit HillSlope (curve fit): 3.6272; Fit Zero Activity [%] [3]: 13.7566% |
| Cc1ccc(C(=O)N2CCN(S(=O)(=O)N3CCOCC3)CC2)cc1 [drawing 434] | −0.01141 | −0.169 | 0.007084 | 0.1108 | −0.2209 | 0.1179 | – |
